The source made the active and inactive calls. No cut-off for these calls is given here.
What was measured:
Cannabinoid receptor 1 [1] = molecular target: T1, Cannabinoid receptor 1 (Homo sapiens, UniProt P21554); experiment: Negative allosteric modulator activity at human CB1R expressed in CHO-K1 cells assessed as inhibition of CP55,940-induced beta-arrestin recruitment preincubated for 30 mins followed by CP55,940 addition measured for 90 mins by PathHunter assay; type: cell-based
Cannabinoid receptor 1 [2] = molecular target: T1, Cannabinoid receptor 1; experiment: Negative allosteric modulator activity at human CB1R expressed in CHO-K1 cells assessed as inhibition of CP55,940-induced beta-arrestin recruitment preincubated for 30 mins followed by CP55,940 addition measured for 90 mins by PathHunter assay relative to control; type: cell-based
Cannabinoid receptor 1 [3] = molecular target: T1, Cannabinoid receptor 1; experiment: Negative allosteric modulator activity at human CB1R expressed in CHO-K1 cells assessed as effect on CP55,940-induced inhibition of forskolin-induced cAMP accumulation preincubated for 30 mins followed by CP55,940 addition measured for 30 mins by HitHunter assay; type: functional, cell-based
Cannabinoid receptor 1 [4] = molecular target: T1, Cannabinoid receptor 1; experiment: Negative allosteric modulator activity at human CB1R expressed in CHO-K1 cells assessed as effect on CP55,940-induced inhibition of forskolin-induced cAMP accumulation preincubated for 30 mins followed by CP55,940 addition measured for 30 mins by HitHunter assay relative to control; type: functional, cell-based
Cannabinoid receptor 1 [5] = molecular target: T1, Cannabinoid receptor 1; experiment: Selectivity index, ratio of EC50 for human CB1R by cAMP assay to EC50 for human CB1R by beta-arrestin recruitment assay; type: functional, single protein
Cannabinoid receptor 1 [6] = molecular target: T1, Cannabinoid receptor 1; experiment: Inverse agonist activity at human CB1R expressed in CHO-K1 cells assessed as [35S]GTPgammaS binding at 10 uM preincubated for 60 mins prior to [35S]GTPgammaS addition by liquid scintillation spectrometric analysis; type: functional, cell-based
[7] = molecular target: Cannabinoid receptor 1 (Mus musculus) (UniProt P47746); experiment: Antagonist activity at CB1R in mouse brain membranes assessed as inhibition of CP55,940-induced [35S]GTPgammaS binding at 1 uM preincubated for 60 mins prior to [35S]GTPgammaS addition by liquid scintillation spectrometric analysis; type: functional, cell membranes; settings: Membrane
Cannabinoid receptor 1 (Mus musculus), sequence (P47746 whole entry): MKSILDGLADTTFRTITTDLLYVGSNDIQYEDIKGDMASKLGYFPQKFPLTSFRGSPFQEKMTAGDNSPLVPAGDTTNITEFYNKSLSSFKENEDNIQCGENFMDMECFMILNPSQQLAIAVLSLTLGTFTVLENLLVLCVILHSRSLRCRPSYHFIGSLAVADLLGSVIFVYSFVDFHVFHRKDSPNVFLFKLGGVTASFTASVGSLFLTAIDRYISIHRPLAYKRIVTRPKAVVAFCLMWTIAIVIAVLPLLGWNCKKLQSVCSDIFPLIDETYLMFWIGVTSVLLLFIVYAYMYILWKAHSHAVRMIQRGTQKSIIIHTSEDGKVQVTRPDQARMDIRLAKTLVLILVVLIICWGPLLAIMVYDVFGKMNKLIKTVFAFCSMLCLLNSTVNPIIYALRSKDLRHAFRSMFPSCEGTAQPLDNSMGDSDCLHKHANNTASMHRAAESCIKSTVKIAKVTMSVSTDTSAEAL

Cannabinoid receptor 1 [8] = molecular target: T1, Cannabinoid receptor 1; experiment: Positive allosteric modulator activity at human CB1R expressed in CHO cells assessed as enhanced binding of [3H]CP55,940 after 60 mins by liquid scintillation spectrometric analysis; type: cell-based
[9] = molecular target: Cannabinoid receptor 1 (Mus musculus) (UniProt P47746); experiment: Negative allosteric modulator activity at CB1R in mouse brain membranes assessed as Emax for CP55,940-induced [35S]GTPgammaS binding at 1 uM preincubated for 60 mins prior to [35S]GTPgammaS addition by liquid scintillation spectrometric analysis relative to control (reference value: […]%); type: functional, cell membranes; settings: Membrane
Cannabinoid receptor 1 [10] = molecular target: T1, Cannabinoid receptor 1; experiment: Positive allosteric modulator activity at human CB1R expressed in CHO cells assessed as enhanced binding of [3H]CP55,940 after 60 mins by liquid scintillation spectrometric analysis relative to control; type: cell-based
Cannabinoid receptor 1 [11] = molecular target: T1, Cannabinoid receptor 1; experiment: Positive allosteric modulator activity at human CB1R expressed in HEK293 cell membranes assessed as enhanced specific binding of [3H]CP55,940 at 500 nM pre-incubated for 60 mins before [3H]CP55,940 addition followed by drug wash-out by liquid scintillation spectrometric-based saturation binding assay
[12] = molecular target: Cannabinoid receptor 1 (Mus musculus) (UniProt P47746); experiment: Negative allosteric modulator activity at CB1R in mouse brain membranes assessed as inhibition of CP55,940-induced [35S]GTPgammaS binding at 100 nM and 1 uM preincubated for 60 mins prior to [35S]GTPgammaS addition by liquid scintillation spectrometric analysis; type: functional, cell membranes; settings: Membrane
[13] = molecular target: Cannabinoid receptor 1 (Mus musculus) (UniProt P47746); experiment: Agonist activity at CB1R in mouse brain membranes assessed as [35S]GTPgammaS binding at 100 nM and 1 uM preincubated for 60 mins prior to [35S]GTPgammaS addition by liquid scintillation spectrometric analysis; type: functional, cell membranes; settings: Membrane
[14] = molecular target: Cannabinoid receptor 1 (Mus musculus) (UniProt P47746); experiment: Inverse agonist activity at CB1R in mouse brain membranes assessed as [35S]GTPgammaS binding at 100 nM and 1 uM preincubated for 60 mins prior to [35S]GTPgammaS addition by liquid scintillation spectrometric analysis; type: functional, cell membranes; settings: Membrane
Cannabinoid receptor 1 [15] = molecular target: T1, Cannabinoid receptor 1; experiment: Agonist activity at human CB1R expressed in CHO-K1 cells assessed as inhibition of CP55,940-induced [35S]GTPgammaS binding up to 1 uM preincubated for 60 mins prior to [35S]GTPgammaS addition by liquid scintillation spectrometric analysis; type: functional, cell-based
Cannabinoid receptor 1 [16] = molecular target: T1, Cannabinoid receptor 1; experiment: Inverse agonist activity at human CB1R expressed in CHO-K1 cells assessed as inhibition [35S]GTPgammaS binding up to 1 uM preincubated for 60 mins prior to [35S]GTPgammaS addition by liquid scintillation spectrometric analysis; type: functional, cell-based
[17] = molecular target: Cannabinoid receptor 1 (Mus musculus) (UniProt P47746); experiment: Activity at CB1R in mouse brain membranes assessed as inhibition of CP55,940-induced [35S]GTPgammaS binding at 100 nM and 1 uM preincubated for 60 mins prior to [35S]GTPgammaS addition by liquid scintillation spectrometric analysis relative to control; type: functional, cell membranes; settings: Membrane
Cannabinoid receptor 1 [18] = molecular target: T1, Cannabinoid receptor 1; experiment: Positive allosteric modulator activity at human CB1R expressed in HEK293 cell membranes assessed as enhanced binding of [3H]CP55,940 at 500 nM by liquid scintillation spectrometric analysis; settings: TDE = time-dependent effect
Cannabinoid receptor 1 [19] = molecular target: T1, Cannabinoid receptor 1; experiment: Activity at human CB1R expressed in HEK293 cell membranes assessed as reduction in binding of [3H]CP55,940 at 500 nM after 90 to 120 mins by liquid scintillation spectrometric analysis
[20] = molecular target: Cannabinoid receptor 1 (Mus musculus) (UniProt P47746); settings: Brain, Membrane, at 100 nM

T1 sequence (P21554 whole entry): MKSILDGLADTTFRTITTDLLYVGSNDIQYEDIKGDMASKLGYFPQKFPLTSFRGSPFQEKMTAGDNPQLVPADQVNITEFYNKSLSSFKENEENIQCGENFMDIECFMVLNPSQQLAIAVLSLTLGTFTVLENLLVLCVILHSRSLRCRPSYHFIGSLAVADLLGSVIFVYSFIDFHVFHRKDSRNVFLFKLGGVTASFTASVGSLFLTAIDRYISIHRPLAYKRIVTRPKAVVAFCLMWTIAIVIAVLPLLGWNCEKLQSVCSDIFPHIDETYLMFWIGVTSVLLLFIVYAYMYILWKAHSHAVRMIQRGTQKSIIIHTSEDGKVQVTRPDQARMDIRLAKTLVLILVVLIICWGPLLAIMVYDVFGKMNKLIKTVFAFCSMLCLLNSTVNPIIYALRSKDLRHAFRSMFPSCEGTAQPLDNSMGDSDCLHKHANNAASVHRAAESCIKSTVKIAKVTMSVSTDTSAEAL

Row | SMILES | EC50 (Cannabinoid receptor 1 [1]) [nM] | Emax (Cannabinoid receptor 1 [2]) [%] | EC50 (Cannabinoid receptor 1 [3]) [nM] | Emax (Cannabinoid receptor 1 [4]) [%] | Ratio EC50 (Cannabinoid receptor 1 [5]) | Emax (Cannabinoid receptor 1 [10]) [%] | further results
1 | O=C(Nc1ccc(C(=O)c2ccccc2)cc1)Nc1cccc(-c2cccc(N3CCCC3)n2)c1 | 683 | 77.4 | > 10000 | 28.1 | 3 |  | 
2 | O=C(Nc1ccc(N=C=S)cc1)Nc1cccc(-c2cccc(N3CCCC3)n2)c1 | 42.9 | 106 |  | 78.2 | 3 |  | 
3 | CCc1c(C(=O)NCCc2ccc(N3CCCCC3)cc2)[nH]c2ccc(Cl)cc12 | 9.05 | 105 | 324 | 78.1 |  | 109 | Activity (Cannabinoid receptor 1 [6]): Active; inhibition [7]: Active; EC50 (Cannabinoid receptor 1 [8]): 83 nM; Emax [9]: 32.4%; Activity (Cannabinoid receptor 1 [11]): inactive
4 | [N-]=[N+]=Nc1ccc(NC(=O)Nc2cccc(-c3cccc(N4CCCC4)n3)c2)cc1 | 28.2 | 105 | 166 | 103 | 3 |  | 
5 | CCCCCCC(C)(C)c1ccc([C@@H]2C[C@H](O)CC[C@H]2CCCO)c(O)c1 |  |  |  |  |  | -90.1 | 
6 | O=C(Nc1ccc(Cl)cc1)Nc1cccc(-c2cccc(N3CCCC3)n2)c1 |  | 106 |  | 115 |  |  | 
7 | [N-]=[N+]=NCCc1c(C(=O)NCCc2ccc(N3CCCCC3)cc2)[nH]c2ccc(Cl)cc12 |  | 105 | 1120 | 96.8 | 14 |  | 
8 | CCc1c(C(=O)NCCc2ccc(N3CCCCC3)cc2)[nH]c2ccc(N=C=S)cc12 | 2.09 | 103 | 174 | 111 | 14 | 116 | inhibition [12]: Dose-dependent effect; Activity [13]: inactive; Activity [14]: inactive; Activity (Cannabinoid receptor 1 [15]): inactive; Activity (Cannabinoid receptor 1 [16]): inactive; EC50 (Cannabinoid receptor 1 [8]): 19.6 nM; Emax [9]: 11.2%; Emax [17]: 87.8%; Activity (Cannabinoid receptor 1 [18]): tde; fold change (FC) (Cannabinoid receptor 1 [11]): 2.25; inhibition (Cannabinoid receptor 1 [19]): Active; Emax [20]: 71.7%
9 | CCc1c(C(=O)NCCc2ccc(N3CCCCC3)cc2)[nH]c2ccc(N=[N+]=[N-])cc12 |  | 105 |  | 87.1 | 14 |  | 
10 | O=C(NCCc1ccc(N2CCCCC2)cc1)c1[nH]c2ccc(Cl)cc2c1CCN=C=S | 209 | 107 | > 10000 | -8.84 | 14 |  | 
